Results reported in ChEMBL document CHEMBL5137082, “Discovery of a Novel Vascular Disrupting Agent Inhibiting Tubulin Polymerization and HDACs with Potent Antitumor Effects” (J Med Chem, 2022).
The source made the active and inactive calls. The calls are words filed in the database; no cut-off is given here.

Key:
[1] = system: MDA-MB-231; test: Antiproliferative activity against human MDA-MB-231 cells assessed as inhibition of cell growth measured after 72 hrs by MTT assay; assay type: functional, cell-based; settings: MDA-MB-231, 72 h
[2] = target: Histone deacetylase 1 (Homo sapiens, UniProt Q13547); test: Inhibition of HDAC1 in human HepG2 cells assessed as increase in level of acetyl histone H3substrate incubated for 24 hrs by chemiluminescence based Western blotting analysis; assay type: cell-based; settings: dose 0.03-0.3 µM
[3] = target: Histone deacetylase 2 (Homo sapiens, UniProt Q92769); test: Inhibition of HDAC2 in human HepG2 cells assessed as increase in level of acetyl histone H3substrate incubated for 24 hrs by chemiluminescence based Western blotting analysis; assay type: cell-based; settings: dose 0.03-0.3 µM
[4] = target: Tubulin (Homo sapiens) (UniProt P68371+Q9H4B7+P0DPH7+P68366+Q13509+Q71U36+P04350+Q3ZCM7+P07437+P68363+Q9BQE3+Q6PEY2+Q13885+Q9BVA1+Q9BUF5); test: Induction of microtubule disruption in human HepG2 cells assessed as loss of cellular structure at 7.5 to 30 nM measured after 2 hrs by DAPI staining based immunofluorescence microscopic assay; assay type: cell-based; settings: dose 7.5-30 nM
[5] = system: HepG2; test: Induction of cell cycle arrest in human HepG2 cells assessed as accumulation G1 phase at 7.5 nM incubated for 48 hrs by propidium iodide staining based flow cytometry analysis (reference value: 59.32 +/- 0.77%); assay type: functional
[6] = system: HepG2; test: Induction of cell cycle arrest in human HepG2 cells assessed as accumulation S phase at 7.5 nM incubated for 48 hrs by propidium iodide staining based flow cytometry analysis (reference value: 17.14 +/- 0.34%); assay type: functional
[7] = system: HepG2; test: Induction of cell cycle arrest in human HepG2 cells assessed as accumulation G2 phase at 15 nM incubated for 48 hrs by propidium iodide staining based flow cytometry analysis (reference value: 23.55 +/- 0.29%); assay type: functional
[8] = system: HepG2; test: Induction of cell cycle arrest in human HepG2 cells assessed as accumulation S phase at 30 nM incubated for 48 hrs by propidium iodide staining based flow cytometry analysis (reference value: 17.14 +/- 0.34%); assay type: functional
[9] = system: HepG2; test: Induction of cell cycle arrest in human HepG2 cells assessed as accumulation G2 phase at 30 nM incubated for 48 hrs by propidium iodide staining based flow cytometry analysis (reference value: 23.55 +/- 0.29%); assay type: functional
[10] = system: HepG2; test: Induction of morphological changes in human HepG2 cells assessed as chromatin aggregation at 7.5 to 30 nM after 48 hrs by Hoechst 33258 staining based fluorescence microscopic analysis; assay type: functional, cell-based; settings: dose 7.5-30 nM
[11] = system: HepG2; test: Induction of apoptosis in human HepG2 cells assessed as late apoptotic cells at 7.5 nM incubated for 48 hrs by Annexin-V/PI-staining based flow cytometry (reference value: 2.53 +/- 0.34%); assay type: functional
[12] = system: HepG2; test: Induction of apoptosis in human HepG2 cells assessed as necrotic cells at 15 nM incubated for 48 hrs by Annexin-V/PI-staining based flow cytometry (reference value: 1.43 +/- 0.26%); assay type: functional
[13] = system: HepG2; test: Induction of apoptosis in human HepG2 cells assessed as necrotic cells at 30 nM incubated for 48 hrs by Annexin-V/PI-staining based flow cytometry (reference value: 1.43 +/- 0.26%); assay type: functional
[14] = system: HepG2; test: Induction of apoptosis in human HepG2 cells assessed as early apoptotic cells at 30 nM incubated for 48 hrs by Annexin-V/PI-staining based flow cytometry (reference value: 4.61 +/- 0.46%); assay type: functional
[15] = system: HepG2; test: Induction of apoptosis in human HepG2 cells assessed as upregulation of Bad protein expression measured after 24 hrs by Western blot analysis; assay type: functional, cell-based; settings: dose 7.5-30 nM, DDE = dose-dependent effect
[16] = system: HepG2; test: Induction of apoptosis in human HepG2 cells assessed as downregulation of Bcl-xL protein expression measured after 24 hrs by Western blot analysis; assay type: functional, cell-based; settings: dose 7.5-30 nM, DDE = dose-dependent effect
[17] = system: PC-3; test: Induction of apoptosis in human PC-3 cells assessed as mitochondrial membrane potential loss by measuring decrease in red fluorescence at 15 nM incubated for 48 hrs by JC1 staining based flow cytometry analysis (reference value: 93.48 +/- 0.15%); assay type: functional; design: scale not given: the % may be the effect or the level left
[18] = system: PC-3; test: Induction of apoptosis in human PC-3 cells assessed as mitochondrial membrane potential loss by measuring decrease in red fluorescence at 30 nM incubated for 48 hrs by JC1 staining based flow cytometry analysis (reference value: 93.48 +/- 0.15%); assay type: functional; design: scale not given: the % may be the effect or the level left
[19] = system: MDA-MB-231; test: Inhibition of cell invasion in human MDA-MB-231 cells measured after 48 hrs by crystal violet staining based transwell assay; assay type: functional; settings: dose 7.5-30 nM, DDE = dose-dependent effect
[20] = system: HUVEC; test: Antivascular activity against HUVEC cells assessed as inhibition of capillary-like tubule formation at 30 nM measured after 6 hrs by inverted microscopy; assay type: functional, cell-based; settings: Homo sapiens
[21] = Metabolic stability in mouse plasma assessed as compound remaining at 40 uM measured after 1 hrs by LC-MS/MS analysis (reference value: 100%); assay type: ADME, cell-free
[22] = Metabolic stability in mouse plasma assessed as compound remaining at 40 uM measured after 2 hrs by LC-MS/MS analysis (reference value: 100%); assay type: ADME, cell-free
[23] = Toxicity in ICR mouse allografted with mouse H22 cells assessed as effect on body weight at 20 mg/kg, iv administered qd measured after 21 days; assay type: organism-based; settings: in vivo, 504 h, time 21 day
[24] = system: Mus musculus; test: In vivo inhibition of HDAC in ICR mouse allografted with mouse H22 cells assessed as upregulation of acetyl-histone H3 expression at 20 mg/kg, iv qd administered for 21 days measured after 24 hrs by Western blot analysis; assay type: functional, organism-based; settings: time 21.0 day
[25] = system: H22; test: Antitumor activity against mouse H22 cells allografted in ICR mouse assessed as reduction in tumor volume growth rate at 20 mg/kg, iv administered qd for 21 days measured after 12 days; assay type: functional, organism-based; settings: time 21.0 day
[26] = Cardiotoxicity in ICR mouse allografted with mouse H22 cells assessed as effect on QRS complex at 20 mg/kg, iv administered qd measured after 21 days by ECG analysis; assay type: toxicity, organism-based; settings: in vivo, 504 h, time 21 day
[27] = Toxicity in ICR mouse allografted with mouse H22 cells assessed as pathological changes in heart at 20 mg/kg, iv administered qd measured after 21 days by H and E staining based analysis; assay type: organism-based; settings: in vivo, 504 h, time 21 day
[28] = Toxicity in ICR mouse allografted with mouse H22 cells assessed as pathological changes in liver at 20 mg/kg, iv administered qd measured after 21 days by H and E staining based analysis; assay type: organism-based; settings: in vivo, 504 h, time 21 day
[29] = Toxicity in ICR mouse allografted with mouse H22 cells assessed as pathological changes in spleen at 20 mg/kg, iv administered qd measured after 21 days by H and E staining based analysis; assay type: organism-based; settings: in vivo, 504 h, time 21 day
[30] = Toxicity in ICR mouse allografted with mouse H22 cells assessed as pathological changes in kidney at 20 mg/kg, iv administered qd measured after 21 days by H and E staining based analysis; assay type: organism-based; settings: in vivo, 504 h, time 21 day
[31] = Toxicity in ICR mouse allografted with mouse H22 cells assessed as diastolic blood pressure at 20 mg/kg, iv administered qd measured after 21 days; assay type: organism-based; settings: in vivo, 504 h, time 21 day
[32] = Cardiotoxicity in ICR mouse allografted with mouse H22 cells assessed as effect on P wave at 20 mg/kg, iv administered qd measured after 21 days by ECG analysis; assay type: toxicity, organism-based; settings: in vivo, 504 h, time 21 day

Sequence of Histone deacetylase 2 (Q92769 whole entry): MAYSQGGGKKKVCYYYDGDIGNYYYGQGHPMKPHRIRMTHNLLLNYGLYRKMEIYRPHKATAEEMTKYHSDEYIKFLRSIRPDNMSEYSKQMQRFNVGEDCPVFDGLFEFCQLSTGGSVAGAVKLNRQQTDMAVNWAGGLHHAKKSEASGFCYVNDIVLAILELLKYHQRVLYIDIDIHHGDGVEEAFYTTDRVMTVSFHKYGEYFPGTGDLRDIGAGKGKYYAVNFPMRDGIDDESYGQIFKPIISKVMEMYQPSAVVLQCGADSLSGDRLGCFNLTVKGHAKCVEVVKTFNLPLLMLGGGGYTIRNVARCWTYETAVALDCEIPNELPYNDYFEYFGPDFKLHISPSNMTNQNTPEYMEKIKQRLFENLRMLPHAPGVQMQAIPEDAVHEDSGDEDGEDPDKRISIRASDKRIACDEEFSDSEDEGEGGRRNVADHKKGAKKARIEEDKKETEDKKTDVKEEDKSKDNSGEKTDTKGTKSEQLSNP
Sequence of Histone deacetylase 1 (Q13547 whole entry): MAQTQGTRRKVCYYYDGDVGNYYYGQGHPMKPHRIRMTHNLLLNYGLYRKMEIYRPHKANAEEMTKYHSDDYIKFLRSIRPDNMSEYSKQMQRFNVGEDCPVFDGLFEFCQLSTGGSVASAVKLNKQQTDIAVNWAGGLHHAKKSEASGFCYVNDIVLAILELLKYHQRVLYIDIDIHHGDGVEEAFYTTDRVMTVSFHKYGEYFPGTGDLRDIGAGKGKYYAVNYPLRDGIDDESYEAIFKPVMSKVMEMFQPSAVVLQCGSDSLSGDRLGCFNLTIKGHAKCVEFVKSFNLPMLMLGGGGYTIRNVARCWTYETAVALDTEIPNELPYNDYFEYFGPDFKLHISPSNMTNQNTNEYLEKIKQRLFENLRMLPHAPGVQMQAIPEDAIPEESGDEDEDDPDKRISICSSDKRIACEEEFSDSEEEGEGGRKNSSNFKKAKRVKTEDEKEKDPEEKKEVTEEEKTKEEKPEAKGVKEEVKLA

Question: Which IC50 [1] does the source give for `COc1ccc(CNC(=O)c2cc(F)ccc2N2CCOCC2)cc1/C=C/C(=O)NO` here?
Answer: 0.03 µM

Question: And the inhibition [2]?
Answer: Active

Question: What about the inhibition [3] of the same compound?
Answer: Active

Question: And the Activity [4]?
Answer: Active

Question: What about the Activity [5] of the same compound?
Answer: 54.77%

Question: What about the Activity [6] of the same compound?
Answer: 20.81%

Question: And the Activity [7]?
Answer: 26.97%

Question: And the Activity [8]?
Answer: 23.58%

Question: What about the Activity [9] of the same compound?
Answer: 33.09%

Question: And the Activity [10]?
Answer: Active

Question: What about the Activity [11] of the same compound?
Answer: 6.89%

Question: What about the Activity [12] of the same compound?
Answer: 1.13%

Question: What about the Activity [13] of the same compound?
Answer: 2.85%

Question: What about the Activity [14] of the same compound?
Answer: 34.86%

Question: What about the Activity [15] of the same compound?
Answer: Dde

Question: And the Activity [16]?
Answer: Dde

Question: What about the Activity [17] of the same compound?
Answer: 61.56%

Question: And the Activity [18]?
Answer: 49.39%

Question: And the inhibition [19]?
Answer: Dde

Question: And the Activity [20]?
Answer: Active

Question: What about the Stability [21] of the same compound?
Answer: 45.6%

Question: What about the Stability [22] of the same compound?
Answer: 30.7%

Question: And the Activity [23]?
Answer: Non-Toxic

Question: What about the inhibition [24] of the same compound?
Answer: Active

Question: And the Activity [25]?
Answer: Active

Question: And the Activity [26]?
Answer: Non-Toxic

Question: What about the Activity [27] of the same compound?
Answer: Non-Toxic

Question: What about the Activity [28] of the same compound?
Answer: Non-Toxic

Question: What about the Activity [29] of the same compound?
Answer: Non-Toxic

Question: And the Activity [30]?
Answer: Non-Toxic

Question: What about the Activity [31] of the same compound?
Answer: Non-Toxic

Question: And the Activity [32]?
Answer: Non-Toxic
